Tested on: statin-treated patients with fasting TG ≥200 and <500 mg/dL and baseline hsCRP ≥2.0 mg/L
Experiment: ANCHOR post-hoc subgroup: lipid parameters, lipoproteins, markers of oxidation and inflammation
Type: in vivo, human
Conditions: for reduction of TG compared with placebo: printed as a reduction
Experimental: A multi-center, placebo-controlled, randomized, double-blind, 12-week study is performed to evaluate the efficacy and safety of >96% E-EPA in patients with fasting triglyceride levels ≥200 mg/dl and <500 mg/dl despite statin therapy (the mean of two qualifying entry values needs to be ≥185 mg/dl and at least one of the values needs to be ≥200 mg/dl). The primary objective of the study is to determine the efficacy of >96% E-EPA 2 g daily and 4 g daily, compared to placebo, in lowering fasting TG levels in patients with high risk for cardiovascular disease and with fasting TG levels ≥200 mg/dL and <500 mg/dL, despite treatment to LDL-C goal on statin therapy.
The population for this study is men and women >18 years of age with a body mass index ≤45 kg/m^2 with fasting TG levels greater than or equal to 200 mg/dl and less than 500 mg/dl and on a stable does of statin therapy (with or without ezetimibe). The statin must be atorvastatin, rosuvastatin or simvastatin. The dose of statin must be stable for ≥4 weeks prior to the LDL-C/TG baseline qualifying measurement for randomization. The statin dose will be optimal such that the patients are at their LDL-C goal at the LDL-C/TG baseline qualifying measurements. The same statin at the same dose will be continued until the study ends.
At the end of the 4-week diet and lifestyle stabilization period or the 6-week diet and stabilization and washout period, eligible patients will enter the 2-week LDL-C and TG qualifying period and will have their fasting LDL-C and TG levels measured at Visit 2 (Week-2) and Visit 3 (Week-1). Eligible patients must have an average fasting LDL-C level ≥40 mg/dL and <100 mg/dL and an average fasting TG level ≥200 mg/dL and <500 mg/dL to enter the 12-week double-blind treatment period. The LDL-C and TG levels for qualification will be based on the average (arithmetic mean) of the Visit 2 (Week-2) and Visit 3 (Week-1) values. If a patient's average LDL-C and/or TG levels from Visit 2 and Visit 3 fall outside the required range for entry into the study, an additional fasting lipid profile can be collected 1 week later at Visit 3.1. If a third sample is collected at Visit 3.1, entry into the study will be based on the average (arithmetic mean) of the values from Visit 3 and Visit 3.1.
After confirmation of qualifying fasting LDL-C and TG values, eligible patients will enter a 12-week, randomized, double-blind treatment period. At Visit 4 (Week 0), patients will be randomly assigned to 1 of the following treatment groups: • >96% E-EPA 2 g daily, • >96% E-EPA 4 g daily, or • Placebo.
>96% E-EPA is provided in 1 g liquid-filled, oblong, gelatin capsules. The matching placebo capsule is filled with light liquid paraffin and contains 0 g of >96% E-EPA. >96% E-EPA capsules are to be taken with food (i.e. with or at the end of a meal).
During the double-blind treatment period, patients will take 2 capsules (>96% E-EPA or matching placebo) in the morning and 2 capsules in the evening for a total of 4 capsules per day. • Patients in the >96% E-EPA 2 g/day treatment group will receive 1>96% E-EPA 1 g capsule and 1 matching placebo capsule in the morning and in the evening. • Patients in the >96% E-EPA 4 g/day treatment group will receive 2>96% E-EPA 1 g capsules in the morning and evening.
For TG, TC, HDL-C, LDL-C, calculated non-HDL-C, and VLDL-C, baseline will be defined as the average of Visit 4 (Week 0) and the preceding lipid qualifying visit (either Visit 3 [Week-1] or if it occurs, Visit 3.1) measurements. Baseline for all other efficacy parameters will be the Visit 4 (Week 0) measurement.
For TG, TC, HDL-C, LDL-C, calculated non-HDL-C, and VLDL-C, Week 12 endpoint will be defined as the average of Visit 6 (Week 11) and Visit 7 (Week 12) measurements.
Week 12 endpoint for all other efficacy parameters will be the Visit 7 (Week 12) measurement. […]

[1] = 4 g/day vs placebo, baseline to week 12, Hodges-Lehmann median
[2] = 4 g/day vs placebo, baseline to week 12, Hodges-Lehmann median, listed as EPA-E
[3] = 4 g/day, baseline to week 12, median

CC/C=C\C/C=C\C/C=C\C/C=C\C/C=C\CCCC(=O)OCC [Icosapent Ethyl, ethyl eicosapentaenoate]
Apo B Median Difference in % Change From Baseline vs Placebo [1]: −7.4% | Apo C-III Median Difference in % Change From Baseline vs Placebo [1]: −16.0% | HDL-C Median Difference in % Change From Baseline vs Placebo [1]: −5.2% | ICAM-1 Median Difference in % Change From Baseline vs Placebo [1]: +1.1% | IL-6 Median Difference in % Change From Baseline vs Placebo [1]: −4.2% | LDL-C Median Difference in % Change From Baseline vs Placebo [1]: −5.0% | Lp-PLA2 Median Difference in % Change From Baseline vs Placebo [1]: −19.6% | RLP-C Median Difference in % Change From Baseline vs Placebo [1]: −23.0% | TC Median Difference in % Change From Baseline vs Placebo [1]: −11.1% | TG Median Difference in % Change From Baseline vs Placebo [1]: −19.9% | VLDL-C Median Difference in % Change From Baseline vs Placebo [1]: −21.0% | VLDL-TG Median Difference in % Change From Baseline vs Placebo [1]: −22.9% | Apo C-III Median Difference in % Change From Baseline vs Placebo [2]: −16% | TG Median Difference in % Change From Baseline vs Placebo [2]: −20% | hsCRP Median Difference in % Change From Baseline vs Placebo [2]: −17.9% | Apo B Change From Baseline, % [3]: −0.5% | Apo C-III Change From Baseline, % [3]: −7.7% | HDL-C Change From Baseline, % [3]: −2.1% | ICAM-1 Change From Baseline, % [3]: +3.3% | IL-6 Change From Baseline, % [3]: −1.6% | LDL-C Change From Baseline, % [3]: +2.8% | Lp-PLA2 Change From Baseline, % [3]: −13.3% | Non-HDL-C Change From Baseline, % [3]: −4.5% | Ox-LDL Change From Baseline, % [3]: −2.9% | RLP-C Change From Baseline, % [3]: −26.3% | TC Change From Baseline, % [3]: −2.6% | VLDL-C Change From Baseline, % [3]: −11.8% | hsCRP Change From Baseline, % [3]: −10.5% | reduction of TG compared with placebo [3]: 19.9% | reduction of TG compared with placebo (4 g/day, baseline to week 12, median, listed as EPA-E): about 19.9% | Apo B End of Treatment (4 g/day, week 12, median): 93.5 mg/dL | Apo C-III End of Treatment (4 g/day, week 12, median): 14.0 mg/dL | Apo C-III End of Treatment (Table 3) (4 g/day, week 12, median): 14 mg/dL | HDL-C End of Treatment (4 g/day, week 12, median): 36.0 mg/dL | ICAM-1 End of Treatment (4 g/day, week 12, median): 300.5 ng/mL | IL-6 End of Treatment (4 g/day, week 12, median): 2.8 pg/mL | LDL-C End of Treatment (4 g/day, week 12, median): 83.5 mg/dL | Lp-PLA2 End of Treatment (4 g/day, week 12, median): 163.0 ng/mL | Non-HDL-C End of Treatment (4 g/day, week 12, median): 125.0 mg/dL | Ox-LDL End of Treatment (4 g/day, week 12, median): 54.1 U/L | TC End of Treatment (4 g/day, week 12, median): 166.0 mg/dL | VLDL-C End of Treatment (4 g/day, week 12, median): 38.0 mg/dL | VLDL-TG End of Treatment (4 g/day, week 12, median): 154.5 mg/dL | hsCRP End of Treatment (4 g/day, week 12, median): 3.7 mg/L | TG End of Treatment (4 g/day, week 12, median, fasting): 220.8 mg/dL

Source: patent US11058661B2, “Compositions and methods for lowering triglycerides in a subject on concomitant statin therapy and having hsCRP levels of at least about 2 mg/L” (priority 2018, dated 2021)
